Where “and” joins values, the source holds several entries; their conditions need not be identical. Identical values can stand only once.
Settings: 303.16 K, Liquid, Vibrating tube method

CCCCCC(=O)OCC(COC(=O)CCCCC)(COC(=O)CCCCC)COC(=O)CCCCC [pentaerythritol tetrahexanoate]
Settings	mass density
243.6 kPa	988.4 kg/m3
243.8 kPa	988.7 kg/m3
244.8 kPa	988.5 kg/m3 and 988.6 kg/m3
245.2 kPa	988.4 kg/m3 and 988.6 kg/m3
245.3 kPa	988.5 kg/m3
245.5 kPa	988.5 kg/m3
245.9 kPa	988.5 kg/m3 and 988.6 kg/m3
246.2 kPa	988.5 kg/m3
246.6 kPa	988.5 kg/m3
246.7 kPa	988.4 kg/m3
247.3 kPa	988.6 kg/m3 and 988.5 kg/m3
247.4 kPa	988.4 kg/m3
248.5 kPa	988.5 kg/m3
248.8 kPa	988.5 kg/m3
249.2 kPa	988.4 kg/m3
249.3 kPa	988.6 kg/m3
250.7 kPa	988.5 kg/m3
251.1 kPa	988.4 kg/m3
251.2 kPa	988.6 kg/m3
251.4 kPa	988.5 kg/m3
251.6 kPa	988.5 kg/m3
251.9 kPa	988.5 kg/m3
252.1 kPa	988.5 kg/m3
252.3 kPa	988.5 kg/m3
252.5 kPa	988.6 kg/m3
252.6 kPa	988.4 kg/m3
252.8 kPa	988.6 kg/m3
253 kPa	988.4 kg/m3
253.5 kPa	988.5 kg/m3
253.7 kPa	988.4 kg/m3
254 kPa	988.5 kg/m3
254.2 kPa	988.5 kg/m3
254.6 kPa	988.4 kg/m3
254.7 kPa	988.5 kg/m3
255.1 kPa	988.6 kg/m3
255.2 kPa	988.6 kg/m3
255.4 kPa	988.5 kg/m3
255.6 kPa	988.5 kg/m3
255.9 kPa	988.5 kg/m3
256.3 kPa	988.5 kg/m3
256.5 kPa	988.5 kg/m3
256.6 kPa	988.5 kg/m3
257 kPa	988.6 kg/m3 and 988.5 kg/m3
257.3 kPa	988.6 kg/m3
257.5 kPa	988.5 kg/m3
257.8 kPa	988.6 kg/m3 and 988.5 kg/m3
258 kPa	988.5 kg/m3
258.4 kPa	988.4 kg/m3
258.5 kPa	988.5 kg/m3
258.7 kPa	988.5 kg/m3
259.1 kPa	988.7 kg/m3
259.4 kPa	988.6 kg/m3 and 988.5 kg/m3
259.6 kPa	988.6 kg/m3
259.8 kPa	988.5 kg/m3
260.1 kPa	988.5 kg/m3
260.3 kPa	988.6 kg/m3
260.4 kPa	988.4 kg/m3
260.8 kPa	988.5 kg/m3 and 988.4 kg/m3
261.1 kPa	988.5 kg/m3
261.3 kPa	988.6 kg/m3
261.8 kPa	988.5 kg/m3
262.5 kPa	988.4 kg/m3 and 988.5 kg/m3
262.7 kPa	988.5 kg/m3
263.1 kPa	988.5 kg/m3
263.2 kPa	988.6 kg/m3 and 988.5 kg/m3
263.7 kPa	988.5 kg/m3
264.1 kPa	988.5 kg/m3
264.3 kPa	988.5 kg/m3
264.4 kPa	988.6 kg/m3 and 988.5 kg/m3
265 kPa	988.6 kg/m3
265.1 kPa	988.5 kg/m3
265.3 kPa	988.5 kg/m3
265.7 kPa	988.5 kg/m3
266.2 kPa	988.6 kg/m3
266.3 kPa	988.5 kg/m3
266.4 kPa	988.5 kg/m3 and 988.6 kg/m3
266.7 kPa	988.5 kg/m3 and 988.6 kg/m3
266.9 kPa	988.6 kg/m3
267.1 kPa	988.6 kg/m3
267.4 kPa	988.4 kg/m3
267.7 kPa	988.6 kg/m3
267.9 kPa	988.5 kg/m3
268.3 kPa	988.5 kg/m3
268.6 kPa	988.5 kg/m3 and 988.4 kg/m3
268.8 kPa	988.5 kg/m3
269 kPa	988.4 kg/m3
269.1 kPa	988.5 kg/m3
270 kPa	988.5 kg/m3
270.2 kPa	988.5 kg/m3
270.7 kPa	988.6 kg/m3
271 kPa	988.6 kg/m3
271.2 kPa	988.5 kg/m3
271.4 kPa	988.6 kg/m3
271.6 kPa	988.6 kg/m3
272.1 kPa	988.6 kg/m3 and 988.5 kg/m3
272.4 kPa	988.6 kg/m3
274.2 kPa	988.6 kg/m3
274.7 kPa	988.6 kg/m3 and 988.5 kg/m3
275 kPa	988.5 kg/m3
275.2 kPa	988.5 kg/m3
275.6 kPa	988.5 kg/m3
275.7 kPa	988.6 kg/m3
275.9 kPa	988.5 kg/m3
276.1 kPa	988.4 kg/m3
276.4 kPa	988.6 kg/m3
276.8 kPa	988.4 kg/m3 and 988.5 kg/m3
277.3 kPa	988.5 kg/m3
277.5 kPa	988.5 kg/m3
277.6 kPa	988.5 kg/m3
278 kPa	988.6 kg/m3
278.2 kPa	988.5 kg/m3
278.3 kPa	988.6 kg/m3
279 kPa	988.4 kg/m3 and 988.5 kg/m3
279.2 kPa	988.5 kg/m3
279.5 kPa	988.6 kg/m3
279.9 kPa	988.6 kg/m3
280.2 kPa	988.5 kg/m3
280.6 kPa	988.5 kg/m3
280.8 kPa	988.6 kg/m3
280.9 kPa	988.6 kg/m3
281.3 kPa	988.5 kg/m3
281.8 kPa	988.5 kg/m3
282 kPa	988.6 kg/m3
282.3 kPa	988.6 kg/m3
282.5 kPa	988.6 kg/m3
282.7 kPa	988.5 kg/m3
283.2 kPa	988.5 kg/m3
283.5 kPa	988.6 kg/m3
283.7 kPa	988.5 kg/m3
283.9 kPa	988.6 kg/m3
284.9 kPa	988.6 kg/m3
285.3 kPa	988.4 kg/m3
285.6 kPa	988.6 kg/m3
286.1 kPa	988.5 kg/m3 and 988.6 kg/m3
286.5 kPa	988.6 kg/m3
287 kPa	988.6 kg/m3
287.2 kPa	988.6 kg/m3
287.5 kPa	988.5 kg/m3
287.9 kPa	988.5 kg/m3
288.6 kPa	988.5 kg/m3
289.8 kPa	988.5 kg/m3
290.7 kPa	988.5 kg/m3
291 kPa	988.6 kg/m3
291.5 kPa	988.5 kg/m3
291.7 kPa	988.6 kg/m3
